{"source": "patent US9261498B2", "about": "“Biomarker for sensitivity to mTOR inhibitor therapy in kidney cancer” (The Regents of the University of California, priority 2005, dated 2016)", "test_system": "VHL knockdown xenograft tumors", "experiment": "FDG microPET imaging of xenograft tumors", "format": "in vivo, SCID mice", "conditions": "within 24 hours, CCI-779 0.1 mg/kg i.p. every 12 hours; uptake normalized to liver", "procedure": "FIGS. 5A-5B. […] (a) Representative images of two SCID-mice bearing isogenic ACHN-xenograft tumors on the right flank before and after two doses of CCI-799 (0.1 mg/kg). Arrows indicate the location of subcutaneous xenograft tumors (innate increased signal intensity due to abdominal brown fat and glial tissue are observed in the thorax and skull of the mice). (b) Quantification of FDG uptake (+/−SEM) in SCID-mice bearing either ACHN-vector or ACHN-CSCG VHL shRNA subcutaneous xenografts. FDG-tumor uptake was normalized to hepatic FDG-uptake for each mouse. n=3 per group and experiments were repeated twice with identical results.\nTotal RNA was extracted from SN12C-CSCG, ACHN-CSCG, SN12C-CSCG-VHLshRNA and ACHN-CSCG-VHL shRNA cell lines treated with vehicle or 10 nM of CCI-779 using the RNeasy kit (Qiagen). Two μg of total RNA was used as a template for the production of c DNA through reverse transcription. […] Threshold cycles (Ct's) for the RT samples were recorded. […] Tracer uptake by the tumors was expressed as the ratio between the maximum intratumoral and mean hepatic counts/pixel. All quantitative values are reported as mean±standard error of the mean (SEM)."}
{"smiles": "CO[C@H]1C[C@@H]2CC[C@@H](C)[C@@](O)(O2)C(=O)C(=O)N2CCCC[C@H]2C(=O)O[C@H]([C@H](C)C[C@@H]2CC[C@@H](OC(=O)C(C)(CO)CO)[C@H](OC)C2)CC(=O)[C@H](C)/C=C(\\C)[C@@H](O)[C@@H](OC)C(=O)[C@H](C)C[C@H](C)/C=C/C=C/C=C/1C", "note": "[CCI-779]", "values": [{"measurement": "FDG uptake of VHL knockdown tumors", "result": "reduced to baseline"}]}
